{"source": "patent US10167262B2", "about": "“Herbicidal substituted 3-arylpyrazoles” (FMC CORPORATION, priority 2014, dated 2019)", "assay_type_in_all_cases": "in vivo", "key": {"rice (Oryza sativa)": {"system": "rice (Oryza sativa)", "test": "Test B flooded paddy test, plant response rating 0-100", "conditions": "Flood, 250 g ai/ha; scale 0 to 100 (0 no effect, 100 complete control); 13 to 15 days", "text": "(§1) At time of treatment, test pots were flooded to 3 cm above the soil surface, treated by application of test compounds directly to the paddy water, and then maintained at that water depth for the duration of the test. Treated plants and controls were maintained in a greenhouse for 13 to 15 days, after which time all species were compared to controls and visually evaluated. […] A dash (-) response means no test result."}, "[1]": {"system": "ducksalad (Heteranthera limosa)", "test": "Test B flooded paddy test, plant response rating 0-100", "conditions": "Flood, 250 g ai/ha; scale 0 to 100 (0 no effect, 100 complete control); 13 to 15 days", "text": "as §1"}, "[2]": {"system": "sedge, umbrella (small-flower umbrella sedge, Cyperus difformis)", "test": "Test B flooded paddy test, plant response rating 0-100", "conditions": "Flood, 250 g ai/ha; scale 0 to 100 (0 no effect, 100 complete control); 13 to 15 days", "text": "as §1"}, "corn (Zea mays)": {"system": "corn (Zea mays)", "test": "Test A pre-/postemergence greenhouse herbicide test, visual injury rating 0-100", "text": "(§2) Seeds of plant species selected from barnyardgrass (Echinochloa crus-galli), large (Lg) crabgrass (Digitaria sanguinalis), giant foxtail (Setaria faberii), morningglory (Ipomoea spp.), pigweed (Amaranthus retroflexus), velvetleaf (Abutilon theophrasti), wheat (Triticum aestivum), and corn (Zea mays) were planted into a blend of loam soil and sand and treated preemergence with a directed soil spray using test chemicals formulated in a non-phytotoxic solvent mixture which included a surfactant. At the same time these species were also treated with postemergence applications of test chemicals formulated in the same manner. Plants ranged in height from 2 to 10 cm and were in the one- to two-leaf stage for the postemergence treatment. Treated plants and untreated controls were maintained in a greenhouse for approximately 10 days, after which time all treated plants were compared to untreated controls and visually evaluated for injury. Plant response ratings, summarized in Table A, are based on a 0 to 100 scale where 0 is no effect and 100 is complete control. A dash (-) response means no test result."}, "[3]": {"system": "barnyardgrass (Echinochloa crus-galli)", "test": "Test A pre-/postemergence greenhouse herbicide test, visual injury rating 0-100", "text": "as §2"}, "[4]": {"system": "giant foxtail (Setaria faberii)", "test": "Test A pre-/postemergence greenhouse herbicide test, visual injury rating 0-100", "text": "as §2"}, "[5]": {"system": "pigweed (Amaranthus retroflexus)", "test": "Test A pre-/postemergence greenhouse herbicide test, visual injury rating 0-100", "text": "as §2"}, "[6]": {"system": "wheat (Triticum aestivum)", "test": "Test A pre-/postemergence greenhouse herbicide test, visual injury rating 0-100", "text": "as §2"}, "[7]": {"system": "morningglory (Ipomoea spp.)", "test": "Test A pre-/postemergence greenhouse herbicide test, visual injury rating 0-100", "text": "as §2"}, "[8]": {"system": "velvetleaf (Abutilon theophrasti)", "test": "Test A pre-/postemergence greenhouse herbicide test, visual injury rating 0-100", "text": "as §2"}, "[9]": {"system": "large (Lg) crabgrass (Digitaria sanguinalis)", "test": "Test A pre-/postemergence greenhouse herbicide test, visual injury rating 0-100", "text": "as §2"}}}
{"smiles": "Cn1cc(C(=O)c2ccccc2)c(-c2cc(Cl)c(Cl)c(Cl)c2)n1", "note": "[Compound 11]", "values": [{"measurement": "Plant response rating, Rice", "setting": "rice (Oryza sativa)", "value": 0}, {"measurement": "Plant response rating, Ducksalad", "setting": "[1]", "value": 0}, {"measurement": "Plant response rating, Sedge, Umbrella", "setting": "[2]", "value": 0}, {"measurement": "Plant response rating (0 to 100 scale), Corn", "setting": "corn (Zea mays); Postemergence, 1000 g ai/ha", "value": 0}, {"measurement": "Plant response rating (0 to 100 scale), Corn", "setting": "corn (Zea mays); Preemergence, 1000 g ai/ha", "value": 0}, {"measurement": "Plant response rating (0 to 100 scale), Barnyardgrass", "setting": "[3]; Postemergence, 1000 g ai/ha", "value": 0}, {"measurement": "Plant response rating (0 to 100 scale), Barnyardgrass", "setting": "[3]; Preemergence, 1000 g ai/ha", "value": 0}, {"measurement": "Plant response rating (0 to 100 scale), Foxtail, Giant", "setting": "[4]; Postemergence, 1000 g ai/ha", "value": 0}, {"measurement": "Plant response rating (0 to 100 scale), Foxtail, Giant", "setting": "[4]; Preemergence, 1000 g ai/ha", "value": 0}, {"measurement": "Plant response rating (0 to 100 scale), Pigweed", "setting": "[5]; Postemergence, 1000 g ai/ha", "value": 90}, {"measurement": "Plant response rating (0 to 100 scale), Pigweed", "setting": "[5]; Preemergence, 1000 g ai/ha", "value": 90}, {"measurement": "Plant response rating (0 to 100 scale), Wheat", "setting": "[6]; Postemergence, 1000 g ai/ha", "value": 0}, {"measurement": "Plant response rating (0 to 100 scale), Wheat", "setting": "[6]; Preemergence, 1000 g ai/ha", "value": 0}, {"measurement": "Plant response rating (0 to 100 scale), Morningglory", "setting": "[7]; Postemergence, 1000 g ai/ha", "value": 0}, {"measurement": "Plant response rating (0 to 100 scale), Morningglory", "setting": "[7]; Preemergence, 1000 g ai/ha", "value": 0}, {"measurement": "Plant response rating (0 to 100 scale), Velvetleaf", "setting": "[8]; Postemergence, 1000 g ai/ha", "value": 80}, {"measurement": "Plant response rating (0 to 100 scale), Velvetleaf", "setting": "[8]; Preemergence, 1000 g ai/ha", "value": 70}, {"measurement": "Plant response rating (0 to 100 scale), Crabgrass, Large", "setting": "[9]; Postemergence, 1000 g ai/ha", "value": 0}, {"measurement": "Plant response rating (0 to 100 scale), Crabgrass, Large", "setting": "[9]; Preemergence, 1000 g ai/ha", "value": 0}]}
{"smiles": "CCn1cc(C(=O)c2ccccc2)c(-c2cc(Cl)c(Cl)c(Cl)c2)n1", "note": "[Compound 12]", "values": [{"measurement": "Plant response rating, Rice", "setting": "rice (Oryza sativa)", "value": 0}, {"measurement": "Plant response rating, Ducksalad", "setting": "[1]", "value": 20}, {"measurement": "Plant response rating, Sedge, Umbrella", "setting": "[2]", "value": 70}, {"measurement": "Plant response rating (0 to 100 scale), Corn", "setting": "corn (Zea mays); Postemergence, 1000 g ai/ha", "value": 0}, {"measurement": "Plant response rating (0 to 100 scale), Corn", "setting": "corn (Zea mays); Preemergence, 1000 g ai/ha", "value": 0}, {"measurement": "Plant response rating (0 to 100 scale), Barnyardgrass", "setting": "[3]; Postemergence, 1000 g ai/ha", "value": 0}, {"measurement": "Plant response rating (0 to 100 scale), Barnyardgrass", "setting": "[3]; Preemergence, 1000 g ai/ha", "value": 0}, {"measurement": "Plant response rating (0 to 100 scale), Foxtail, Giant", "setting": "[4]; Postemergence, 1000 g ai/ha", "value": 0}, {"measurement": "Plant response rating (0 to 100 scale), Foxtail, Giant", "setting": "[4]; Preemergence, 1000 g ai/ha", "value": 0}, {"measurement": "Plant response rating (0 to 100 scale), Pigweed", "setting": "[5]; Postemergence, 1000 g ai/ha", "value": 90}, {"measurement": "Plant response rating (0 to 100 scale), Pigweed", "setting": "[5]; Preemergence, 1000 g ai/ha", "value": 80}, {"measurement": "Plant response rating (0 to 100 scale), Wheat", "setting": "[6]; Postemergence, 1000 g ai/ha", "value": 0}, {"measurement": "Plant response rating (0 to 100 scale), Wheat", "setting": "[6]; Preemergence, 1000 g ai/ha", "value": 0}, {"measurement": "Plant response rating (0 to 100 scale), Morningglory", "setting": "[7]; Postemergence, 1000 g ai/ha", "value": 0}, {"measurement": "Plant response rating (0 to 100 scale), Morningglory", "setting": "[7]; Preemergence, 1000 g ai/ha", "value": 0}, {"measurement": "Plant response rating (0 to 100 scale), Velvetleaf", "setting": "[8]; Postemergence, 1000 g ai/ha", "value": 80}, {"measurement": "Plant response rating (0 to 100 scale), Velvetleaf", "setting": "[8]; Preemergence, 1000 g ai/ha", "value": 70}, {"measurement": "Plant response rating (0 to 100 scale), Crabgrass, Large", "setting": "[9]; Postemergence, 1000 g ai/ha", "value": 0}, {"measurement": "Plant response rating (0 to 100 scale), Crabgrass, Large", "setting": "[9]; Preemergence, 1000 g ai/ha", "value": 0}]}
{"smiles": "O=C(c1ccccc1)c1cn(CC(F)F)nc1-c1cc(Cl)cc(Cl)c1", "note": "[Compound 59]", "values": [{"measurement": "Plant response rating (0 to 100 scale), Corn", "setting": "corn (Zea mays); Postemergence, 125 g ai/ha", "value": 0}, {"measurement": "Plant response rating (0 to 100 scale), Corn", "setting": "corn (Zea mays); Postemergence, 500 g ai/ha", "value": 0}, {"measurement": "Corn plant response rating (0 = no effect, 100 = complete control)", "setting": "corn (Zea mays); Preemergence, 125 g ai/ha", "value": 0}, {"measurement": "Plant response rating (0 to 100 scale), Corn", "setting": "corn (Zea mays); Preemergence, 500 g ai/ha", "value": 0}, {"measurement": "Plant response rating (0 to 100 scale), Barnyardgrass", "setting": "[3]; Postemergence, 125 g ai/ha", "value": 0}, {"measurement": "Plant response rating (0 to 100 scale), Barnyardgrass", "setting": "[3]; Postemergence, 500 g ai/ha", "value": 0}, {"measurement": "Barnyardgrass plant response rating (0 = no effect, 100 = complete control)", "setting": "[3]; Preemergence, 125 g ai/ha", "value": 0}, {"measurement": "Plant response rating (0 to 100 scale), Barnyardgrass", "setting": "[3]; Preemergence, 500 g ai/ha", "value": 0}, {"measurement": "Plant response rating (0 to 100 scale), Foxtail, Giant", "setting": "[4]; Postemergence, 125 g ai/ha", "value": 0}, {"measurement": "Plant response rating (0 to 100 scale), Foxtail, Giant", "setting": "[4]; Postemergence, 500 g ai/ha", "value": 0}, {"measurement": "Foxtail, Giant plant response rating (0 = no effect, 100 = complete control)", "setting": "[4]; Preemergence, 125 g ai/ha", "value": 0}, {"measurement": "Plant response rating (0 to 100 scale), Foxtail, Giant", "setting": "[4]; Preemergence, 500 g ai/ha", "value": 0}, {"measurement": "Plant response rating (0 to 100 scale), Pigweed", "setting": "[5]; Postemergence, 125 g ai/ha", "value": 60}, {"measurement": "Plant response rating (0 to 100 scale), Pigweed", "setting": "[5]; Postemergence, 500 g ai/ha", "value": 80}, {"measurement": "Pigweed plant response rating (0 = no effect, 100 = complete control)", "setting": "[5]; Preemergence, 125 g ai/ha", "value": 0}, {"measurement": "Plant response rating (0 to 100 scale), Pigweed", "setting": "[5]; Preemergence, 500 g ai/ha", "value": 30}, {"measurement": "Plant response rating (0 to 100 scale), Wheat", "setting": "[6]; Postemergence, 125 g ai/ha", "value": 0}, {"measurement": "Plant response rating (0 to 100 scale), Wheat", "setting": "[6]; Postemergence, 500 g ai/ha", "value": 0}, {"measurement": "Wheat plant response rating (0 = no effect, 100 = complete control)", "setting": "[6]; Preemergence, 125 g ai/ha", "value": 0}, {"measurement": "Plant response rating (0 to 100 scale), Morningglory", "setting": "[7]; Postemergence, 125 g ai/ha", "value": 0}, {"measurement": "Plant response rating (0 to 100 scale), Morningglory", "setting": "[7]; Postemergence, 500 g ai/ha", "value": 0}, {"measurement": "Morningglory plant response rating (0 = no effect, 100 = complete control)", "setting": "[7]; Preemergence, 125 g ai/ha", "value": 0}, {"measurement": "Plant response rating (0 to 100 scale), Morningglory", "setting": "[7]; Preemergence, 500 g ai/ha", "value": 0}, {"measurement": "Plant response rating (0 to 100 scale), Velvetleaf", "setting": "[8]; Postemergence, 125 g ai/ha", "value": 50}, {"measurement": "Plant response rating (0 to 100 scale), Velvetleaf", "setting": "[8]; Postemergence, 500 g ai/ha", "value": 70}, {"measurement": "Velvetleaf plant response rating (0 = no effect, 100 = complete control)", "setting": "[8]; Preemergence, 125 g ai/ha", "value": 0}, {"measurement": "Plant response rating (0 to 100 scale), Velvetleaf", "setting": "[8]; Preemergence, 500 g ai/ha", "value": 40}, {"measurement": "Plant response rating (0 to 100 scale), Crabgrass, Large", "setting": "[9]; Postemergence, 125 g ai/ha", "value": 0}, {"measurement": "Plant response rating (0 to 100 scale), Crabgrass, Large", "setting": "[9]; Postemergence, 500 g ai/ha", "value": 0}, {"measurement": "Crabgrass, Large plant response rating (0 = no effect, 100 = complete control)", "setting": "[9]; Preemergence, 125 g ai/ha", "value": 0}, {"measurement": "Plant response rating (0 to 100 scale), Crabgrass, Large", "setting": "[9]; Preemergence, 500 g ai/ha", "value": 0}]}
